± gives the expanded uncertainty stated by the source.
Experiment: xn = mol fraction of the nth substance listed
Settings: 101 kPa, Liquid, Vibrating tube method, x1 = 1

- mass density (323.15 K): 988.02 ± 0.2 kg/m3
- mass density (328.15 K): 985.68 ± 0.21 kg/m3
- mass density (333.15 K): 983.17 ± 0.21 kg/m3
SMILES: O [water] + C1CCOC1
